Data as given in PubChem BioAssay (NCI).
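Assay format: 96-well plates, 48-hour exposure. At the GI50, growth is halved. TGI is the concentration that stops growth completely.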

Columns and labels:
Assay in all cases: NCI anticancer screen, dose series, 48 h
[1] = test system: NCI/ADR-RES ovarian
[2] = test system: UACC-257 melanoma
[3] = test system: CCRF-CEM leukemia
[4] = test system: NCI-H226 lung
[5] = test system: SK-MEL-5 melanoma
[6] = test system: BT-549 breast
[7] = test system: NCI-H460 lung
[8] = test system: HT29 colon
[9] = test system: EKVX NSCLC
[10] = test system: K-562 leukemia
[11] = test system: ACHN renal
[12] = test system: SK-OV-3 ovarian
[13] = test system: MCF7 breast
[14] = test system: MDA-MB-435
[15] = test system: KM12 colon
[16] = test system: PC-3 prostate
[17] = test system: SF-295 CNS
[18] = test system: IGROV1 ovarian
[19] = test system: SK-MEL-28 melanoma
[20] = test system: SK-MEL-2 melanoma
[21] = test system: RPMI-8226 leukemia
[22] = test system: HOP-62 NSCLC
[23] = test system: HL-60(TB) leukemia
[24] = test system: SF-268 CNS
[25] = test system: HCT-116 colon
[26] = test system: UO-31 renal
[27] = test system: HS 578T breast
[28] = test system: HCC-2998 colon
[29] = test system: A498 renal
[30] = test system: COLO 205 colon
[31] = test system: A549 NSCLC
[32] = test system: NCI-H522 lung
[33] = test system: U251 CNS
[34] = test system: 786-0 renal
[35] = test system: LOX IMVI melanoma
[36] = test system: OVCAR-8 ovarian
[37] = test system: SF-539 CNS
[38] = test system: SR leukemia
[39] = test system: MALME-3M melanoma
[40] = test system: SN12C renal
[41] = test system: TK-10 renal
[42] = test system: MDA-MB-231 breast
[43] = test system: OVCAR-5 ovarian
[44] = test system: T-47D breast
[45] = test system: SW-620 colon
[46] = test system: DU-145 prostate
[47] = test system: HOP-92 NSCLC
[48] = test system: OVCAR-3 ovarian
[49] = test system: SNB-75 CNS
[50] = test system: OVCAR-4 ovarian
[51] = test system: CAKI-1 renal
[52] = test system: M14 melanoma
[53] = test system: MOLT-4 leukemia
[54] = test system: HCT-15 colon
[55] = test system: RXF 393 renal
[56] = test system: NCI-H23 lung
[57] = test system: SNB-19 CNS
[58] = test system: UACC-62 melanoma

Compound: COc1cc(/C=C2\CN(C(=O)CCN3CCC(=NO)CC3)C/C(=C\c3cc(OC)c(OC)c(OC)c3)C2=O)cc(OC)c1OC
- GI50 [1]: 2710 nM
- TGI [1]: > 100000 nM
- GI50 [2]: 510 nM
- TGI [2]: 2440 nM
- GI50 [3]: 266 nM
- TGI [3]: 1600 nM
- GI50 [4]: 792 nM
- TGI [4]: 2850 nM
- GI50 [5]: 302 nM
- TGI [5]: 927 nM
- GI50 [6]: 332 nM
- TGI [6]: 1230 nM
- GI50 [7]: 282 nM
- TGI [7]: 847 nM
- GI50 [8]: 369 nM
- TGI [8]: 1510 nM
- GI50 [9]: 1820 nM
- TGI [9]: 4810 nM
- GI50 [10]: 301 nM
- TGI [10]: > 100000 nM
- GI50 [11]: 837 nM
- TGI [11]: 2510 nM
- GI50 [12]: 1870 nM
- TGI [12]: 4780 nM
- GI50 [13]: 382 nM
- TGI [13]: 2440 nM
- GI50 [14]: 239 nM
- TGI [14]: 637 nM
- GI50 [15]: 263 nM
- TGI [15]: 731 nM
- GI50 [16]: 298 nM
- TGI [16]: 1120 nM
- GI50 [17]: 656 nM
- TGI [17]: 1670 nM
- GI50 [18]: 275 nM
- TGI [18]: 793 nM
- GI50 [19]: 279 nM
- TGI [19]: 766 nM
- GI50 [20]: 1250 nM
- TGI [20]: 4140 nM
- GI50 [21]: 268 nM
- TGI [21]: 851 nM
- GI50 [22]: 719 nM
- TGI [22]: 2390 nM
- GI50 [23]: 298 nM
- TGI [23]: 1050 nM
- GI50 [24]: 535 nM
- TGI [24]: 1950 nM
- GI50 [25]: 206 nM
- TGI [25]: 467 nM
- GI50 [26]: 1110 nM
- TGI [26]: 2510 nM
- GI50 [27]: 441 nM
- TGI [27]: 13500 nM
- GI50 [28]: 340 nM
- TGI [28]: 724 nM
- GI50 [29]: 658 nM
- TGI [29]: 2070 nM
- GI50 [30]: 419 nM
- TGI [30]: 1270 nM
- GI50 [31]: 1150 nM
- TGI [31]: 5820 nM
- GI50 [32]: 323 nM
- TGI [32]: 1340 nM
- GI50 [33]: 291 nM
- TGI [33]: 1010 nM
- GI50 [34]: 355 nM
- TGI [34]: 1140 nM
- GI50 [35]: 194 nM
- TGI [35]: 472 nM
- GI50 [36]: 444 nM
- TGI [36]: > 35600 nM
- GI50 [37]: 277 nM
- TGI [37]: 928 nM
- GI50 [38]: 255 nM
- TGI [38]: > 27700 nM
- GI50 [39]: 211 nM
- TGI [39]: 579 nM
- GI50 [40]: 241 nM
- TGI [40]: 695 nM
- GI50 [41]: 1180 nM
- TGI [41]: 2800 nM
- GI50 [42]: 323 nM
- TGI [42]: 1110 nM
- GI50 [43]: 874 nM
- TGI [43]: 2280 nM
- GI50 [44]: 803 nM
- TGI [44]: 10600 nM
- GI50 [45]: 273 nM
- TGI [45]: 860 nM
- GI50 [46]: 657 nM
- TGI [46]: 1700 nM
- GI50 [47]: 676 nM
- TGI [47]: 2040 nM
- GI50 [48]: 391 nM
- TGI [48]: 1260 nM
- GI50 [49]: 425 nM
- TGI [49]: 2000 nM
- GI50 [50]: 733 nM
- TGI [50]: 2150 nM
- GI50 [51]: 837 nM
- TGI [51]: 2340 nM
- GI50 [52]: 248 nM
- TGI [52]: 812 nM
- GI50 [53]: 328 nM
- TGI [53]: 12100 nM
- GI50 [54]: 972 nM
- TGI [54]: 3220 nM
- GI50 [55]: 354 nM
- TGI [55]: 999 nM
- GI50 [56]: 342 nM
- TGI [56]: 1390 nM
- GI50 [57]: 452 nM
- TGI [57]: 1580 nM
- GI50 [58]: 182 nM
- TGI [58]: 411 nM
